PubChem BioAssay AID1963833 (Molecular Pharmacology Branch, DTP, NCI, 2024)
Values joined by “and” are separate entries in the source; they are usually repeats but may differ in a detail not shown here. Equal entries are not always repeated.

Test system: 883617-216-R-J1-PDC complex spheroid viability
Assay: Anticancer human tumor 883617-216-R-J1-PDC patient-derived bladder carcinoma cell line growth inhibition [POLQ]
Details: for viability, T/C: stronger effect = lower value
Experimental: Multicellular complex tumor spheroid response to Polymerase (POL) inhibitors (novobiocin, ART-558, RP6685) in combination with a variety of drugs and investigational agents in selected tumor cell lines
The POL inhibitors (novobiocin, ART-558, and RP6685) were evaluated both individually and in combination with standard of care and investigational anticancer small molecules within a complex spheroid model of solid tumors. . Complex spheroids include a stromal component modeled by human endothelial cells (HUVEC) and fibroblasts modeled by human mesenchymal stem cells (MSCs). The concentration ranges selected for each drug and investigational agent were based upon clinically achievable concentrations if the clinical Cmax of the agent was known.
Compounds. The drugs and investigational agents: novobiocin (NSC847541), ART-558 (NSC835418), RP-6685 (NSC848927), peposertib (NSC802822), ceralasertib (NSC780249), elimusertib (NSC800525), camonsertib (NSC841442), AZD-1390 (NSC803789), olaparib (NSC753686), talazoparib (NSC767125), rucaparib (NSC756644), sotorasib (NSC818433), MRTX-1133 (NSC836407), SN-38 (NSC673596), topotecan (NSC609699), epotoside (NSC141540), doxorubicin (NSC123127), gemcitabine (NSC613327), 5-fluorouracil (NSC19893), paclitaxel (NSC125973), vemurafenib (NSC761431), MSA-2 (NSC828583), SN-011 (NSC837082), adavosertib (NSC754352), prexasertib (NSC758257), carboplatin (NSC241240) and oxaliplatin (NSC266046), were obtained from the National Cancer Institute (NCI) Developmental Therapeutics Program Chemical Repository (21). The FDA-approved anticancer drug set is available from the Developmental Therapeutics Program at https://dtp.cancer.gov/organization/dscb/obtaining/. […] The stock solutions were prepared in dimethyl sulfoxide (DMSO, Sigma-Aldrich, St. Louis, MO, cat. D2650), except for the platinum compounds which were prepared in saline (Quality Biological, Gaithersburg, MD, cat. 114-055-101), at 800-fold the tested concentration and stored at -70 degrees C prior to their use. All drugs and investigational agents were tested over a range starting from a high concentration at or near the clinical Cmax and decreasing in half-log increments. If the clinical Cmax for an agent had not been determined, the highest concentration tested was 10 microM, except for SN-38, which was tested at a high concentration of 1 microM.
Cell Culture. All cells were maintained in an incubator at 37 degrees C and 5% CO2 with 95% humidity. The PDC lines were cultured according to standard operating procedures established by the NCI PDMR (https://pdmr.cancer.gov). Table 3 of the manuscript, lists the cell lines along with the number of the three cell types plated to form the mct-spheroids and media for tumor cell growth. After thawing, all PDC lines, except 997537-175-T-J1-PDC and 415267-285-R-J2-PDC, were cultured in Matrigel-coated flasks prepared with a working solution of 1X Ham's F-12 nutrient mix, without supplementation (Thermo Fisher Scientific, cat. 11765054), 100 U/mL penicillin-streptomycin (Thermo Fisher Scientific, cat. 15140122), and 2.5% Matrigel (Corning Inc., Corning, NY, cat. 354248) for the first three passages. The two PDC lines 997537-175-T-J1-PDC and 415267-285-R-J2-PDC were cultured on uncoated flasks. The 857933-349-R-J2-PDC line was cultured in 6C/Colon 1B media containing advanced DMEM/F-12 (Thermo Fisher Scientific, cat. 12634028), 10 mM HEPES (Thermo Fisher Scientific, cat. 15630080), 1X GlutaMAX supplement (Thermo Fisher Scientific, cat. 35050061), 0.1 mg/mL primocin (InvivoGen, San Diego, CA, cat. ant-pm-2), 10% defined fetal bovine serum, heat inactivated (HyClone Laboratories Inc., Logan, UT, cat. SH30070.03HI), 50% L-WRN conditioned media (ATCC, cat. CRL-3276), 1.25 mM N-Acetyl-L-cysteine (Sigma-Aldrich, cat. A9165), 10 mM nicotinamide (Sigma-Aldrich, cat. N0636), 1X B-27 supplement (Thermo Fisher Scientific, cat. 17504044), 1X N-2 supplement (Thermo Fisher Scientific, cat. […]

[1] = curve of first compound, second compound 0.0316 µM
[2] = curve of first compound, second compound 0.1 µM
[3] = curve of first compound, second compound 0.316 µM
[4] = curve of first compound, second compound 1 µM
[5] = curve of first compound, second compound 3.16 µM
[6] = curve of first compound, second compound 10 µM
[7] = second compound 0.0316 µM, first compound 0.0316 µM
[8] = second compound 0.0316 µM, first compound 0.1 µM
[9] = second compound 0.0316 µM, first compound 0.316 µM
[10] = second compound 0.0316 µM, first compound 1 µM
[11] = second compound 0.1 µM, first compound 0.0316 µM
[12] = second compound 0.1 µM, first compound 0.1 µM
[13] = second compound 0.1 µM, first compound 0.316 µM
[14] = second compound 0.1 µM, first compound 1 µM
[15] = second compound 0.316 µM, first compound 0.0316 µM
[16] = second compound 0.316 µM, first compound 0.1 µM
[17] = second compound 0.316 µM, first compound 0.316 µM
[18] = second compound 0.316 µM, first compound 1 µM
[19] = second compound 1 µM, first compound 0.0316 µM
[20] = second compound 1 µM, first compound 0.1 µM
[21] = second compound 1 µM, first compound 0.316 µM
[22] = second compound 1 µM, first compound 1 µM
[23] = second compound 3.16 µM, first compound 0.0316 µM
[24] = second compound 3.16 µM, first compound 0.1 µM
[25] = second compound 3.16 µM, first compound 0.316 µM
[26] = second compound 3.16 µM, first compound 1 µM
[27] = second compound 10 µM, first compound 0.0316 µM
[28] = second compound 10 µM, first compound 0.1 µM
[29] = second compound 10 µM, first compound 0.316 µM
[30] = second compound 10 µM, first compound 1 µM
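Further: spheroids exposed to compounds for seven days before readout.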
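Wherever viability, T/C is given: 100% = DMSO vehicle control viability.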

With `C=CC(=O)N1CCN(c2nc(=O)n(-c3c(C)ccnc3C(C)C)c3nc(-c4c(O)cccc4F)c(F)cc23)C(C)C1` (stereo not drawn) + Cc1cccc(N(C)C(=O)C2C(O)CCN2c2nc(C)cc(C(F)(F)F)c2C#N)c1 the IC50 [1] was over 10000 nM, the IC50 [2] was over 10000 nM and the IC50 [3] was over 10000 nM. It also gave an IC50 [4] of over 10000 nM, an IC50 [5] of over 10000 nM and an IC50 [6] of over 10000 nM. For the same compound, the viability, T/C [7] was 72.4%, the viability, T/C [8] was 66.9% and the viability, T/C [9] was 75.6%. The viability, T/C [10] was 84.9%, the viability, T/C (second compound 0.0316 µM, first compound 3.16 µM) was 84.2% and the viability, T/C (second compound 0.0316 µM, first compound 10 µM) was 73.4%. It also gave a viability, T/C [11] of 74.2%, a viability, T/C [12] of 79.3% and a viability, T/C [13] of 75.6%. The viability, T/C [14] was 80.8%, the viability, T/C (second compound 0.1 µM, first compound 3.16 µM) was 79.2% and the viability, T/C (second compound 0.1 µM, first compound 10 µM) was 81.3%. It also gave a viability, T/C [15] of 80.2%, a viability, T/C [16] of 62% and a viability, T/C [17] of 72%. The viability, T/C [18] was 82.8%, the viability, T/C (second compound 0.316 µM, first compound 3.16 µM) was 85.1% and the viability, T/C (second compound 0.316 µM, first compound 10 µM) was 87.2%. The viability, T/C [19] was 71.4%, the viability, T/C [20] was 66.2% and the viability, T/C [21] was 67.3%. The viability, T/C [22] was 83.2%, the viability, T/C (second compound 1 µM, first compound 3.16 µM) was 90.6% and the viability, T/C (second compound 1 µM, first compound 10 µM) was 79.9%. It also gave a viability, T/C [23] of 65%, a viability, T/C [24] of 59.8% and a viability, T/C [25] of 68.6%. The viability, T/C [26] was 76.1%, the viability, T/C (second compound 3.16 µM, first compound 3.16 µM) was 100% and the viability, T/C (second compound 3.16 µM, first compound 10 µM) was 78.3%. The viability, T/C [27] was 78.3%, the viability, T/C [28] was 77.3% and the viability, T/C [29] was 84%. For the same compound, the viability, T/C [30] was 86.6%, the viability, T/C (second compound 10 µM, first compound 3.16 µM) was 101% and the viability, T/C (second compound 10 µM, first compound 10 µM) was 82.7%.

For `O=c1[nH]cc(F)c(=O)[nH]1`, the viability, T/C (compound 0.0316 µM) was 108% and 102% and 103%, the viability, T/C (compound 0.1 µM) was 89.4% and 107% and 89.8% and the viability, T/C (compound 0.316 µM) was 109% and 106% and 81.9%. For the same compound, the viability, T/C (compound 1 µM) was 88.9% and 89.1% and 97.6%, the viability, T/C (compound 3.16 µM) was 79.5% and 85.3% and 88.3% and the viability, T/C (compound 10 µM) was 65.1% and 78.3% and 64.8%. The IC50 (curve of compound) was over 10000 nM.

Work on `COc1cccc(OCCCN)c1-c1cc(Nc2cnc(C#N)cn2)n[nH]1` + Cc1cccc(N(C)C(=O)C2C(O)CCN2c2nc(C)cc(C(F)(F)F)c2C#N)c1 yielded an IC50 [1] of 71.6 nM, an IC50 [2] of 75.8 nM and an IC50 [3] of 30.2 nM. The IC50 [4] was 77.3 nM, the IC50 [5] was 92.7 nM and the IC50 [6] was 146 nM. It also gave a viability, T/C (second compound 0.0316 µM, first compound 0.00316 µM) of 84.8%, a viability, T/C (second compound 0.0316 µM, first compound 0.01 µM) of 70.7% and a viability, T/C [7] of 61.9%. The viability, T/C [8] was 46.8%, the viability, T/C [9] was 33.9% and the viability, T/C [10] was 35%. For the same compound, the viability, T/C (second compound 0.1 µM, first compound 0.00316 µM) was 95.5%, the viability, T/C (second compound 0.1 µM, first compound 0.01 µM) was 81.7% and the viability, T/C [11] was 68.5%. It also gave a viability, T/C [12] of 40.8%, a viability, T/C [13] of 39.7% and a viability, T/C [14] of 30.7%. The viability, T/C (second compound 0.316 µM, first compound 0.00316 µM) was 86.9%, the viability, T/C (second compound 0.316 µM, first compound 0.01 µM) was 81.8% and the viability, T/C [15] was 48.2%. The viability, T/C [16] was 45.7%, the viability, T/C [17] was 40.4% and the viability, T/C [18] was 35.4%. The viability, T/C (second compound 1 µM, first compound 0.00316 µM) was 91.4%, the viability, T/C (second compound 1 µM, first compound 0.01 µM) was 82.9% and the viability, T/C [19] was 51.2%. It also gave a viability, T/C [20] of 51.4%, a viability, T/C [21] of 39.5% and a viability, T/C [22] of 29.1%. The viability, T/C (second compound 3.16 µM, first compound 0.00316 µM) was 91.5%, the viability, T/C (second compound 3.16 µM, first compound 0.01 µM) was 77% and the viability, T/C [23] was 47.1%. For the same compound, the viability, T/C [24] was 60.2%, the viability, T/C [25] was 41.1% and the viability, T/C [26] was 31.8%. The viability, T/C (second compound 10 µM, first compound 0.00316 µM) was 88.3%, the viability, T/C (second compound 10 µM, first compound 0.01 µM) was 83.5% and the viability, T/C [27] was 65.8%. The viability, T/C [28] was 51.7%, the viability, T/C [29] was 46.6% and the viability, T/C [30] was 47.5%.

With `O=C(Nc1ccc(O)c(NS(=O)(=O)c2ccc(F)cc2)c1)c1ccc(-c2ccccc2)cc1` the viability, T/C (compound 0.0316 µM) was 87.6% and 93.4% and 107%, the viability, T/C (compound 0.1 µM) was 107% and 88.9% and 92.8% and the viability, T/C (compound 0.316 µM) was 91.6% and 80.3% and 81.8%. For the same compound, the viability, T/C (compound 1 µM) was 89.6% and 92.9% and 90.9%, the viability, T/C (compound 3.16 µM) was 99.8% and 81.8% and 76.2% and the viability, T/C (compound 10 µM) was 75.6% and 74.6% and 59%. It also gave an IC50 (curve of compound) of over 10000 nM.
